From ChEMBL document CHEMBL4229568, “Discovery of natural flavonoids as activators of Nrf2-mediated defense system: Structure-activity relationship and inhibition of intracellular oxidative insults” (Bioorg Med Chem, 2018)
Active and inactive are the calls of the source. No cut-off for these calls is given here.

Columns and labels:
[1] = target: T1, Nuclear factor erythroid 2-related factor 2 (Homo sapiens) (UniProt Q16236); assay: Induction of Nrf2 translocation from cytoplasm to nucleus in human BEAS2B cells at 6.25 uM after 18 hrs by DAPI staining-based immunofluorescence analysis; type: cell-based
T1 sequence (whole entry): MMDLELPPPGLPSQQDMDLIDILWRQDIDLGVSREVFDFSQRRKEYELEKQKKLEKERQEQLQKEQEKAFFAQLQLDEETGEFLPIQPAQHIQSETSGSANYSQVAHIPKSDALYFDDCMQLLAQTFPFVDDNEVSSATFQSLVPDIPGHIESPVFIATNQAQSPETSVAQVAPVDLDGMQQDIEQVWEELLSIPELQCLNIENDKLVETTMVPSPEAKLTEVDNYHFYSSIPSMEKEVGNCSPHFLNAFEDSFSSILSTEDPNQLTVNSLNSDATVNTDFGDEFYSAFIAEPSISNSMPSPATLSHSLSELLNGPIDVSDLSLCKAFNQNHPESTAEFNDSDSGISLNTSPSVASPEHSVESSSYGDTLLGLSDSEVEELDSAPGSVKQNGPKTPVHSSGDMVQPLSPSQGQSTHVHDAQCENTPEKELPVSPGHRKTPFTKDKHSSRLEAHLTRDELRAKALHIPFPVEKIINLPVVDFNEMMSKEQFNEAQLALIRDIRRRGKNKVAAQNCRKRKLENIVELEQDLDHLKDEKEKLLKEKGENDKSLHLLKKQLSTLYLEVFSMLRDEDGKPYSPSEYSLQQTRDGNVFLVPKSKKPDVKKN

[2] = target: T2, Nuclear factor erythroid 2-related factor 2 (Mus musculus) (UniProt Q60795); assay: Activation of Nrf2 in mouse Heap1c1c7 cells assessed as induction of NAD(P)H:quinone reductase activity at 25 uM relative to control; type: cell-based
T2 sequence (whole entry): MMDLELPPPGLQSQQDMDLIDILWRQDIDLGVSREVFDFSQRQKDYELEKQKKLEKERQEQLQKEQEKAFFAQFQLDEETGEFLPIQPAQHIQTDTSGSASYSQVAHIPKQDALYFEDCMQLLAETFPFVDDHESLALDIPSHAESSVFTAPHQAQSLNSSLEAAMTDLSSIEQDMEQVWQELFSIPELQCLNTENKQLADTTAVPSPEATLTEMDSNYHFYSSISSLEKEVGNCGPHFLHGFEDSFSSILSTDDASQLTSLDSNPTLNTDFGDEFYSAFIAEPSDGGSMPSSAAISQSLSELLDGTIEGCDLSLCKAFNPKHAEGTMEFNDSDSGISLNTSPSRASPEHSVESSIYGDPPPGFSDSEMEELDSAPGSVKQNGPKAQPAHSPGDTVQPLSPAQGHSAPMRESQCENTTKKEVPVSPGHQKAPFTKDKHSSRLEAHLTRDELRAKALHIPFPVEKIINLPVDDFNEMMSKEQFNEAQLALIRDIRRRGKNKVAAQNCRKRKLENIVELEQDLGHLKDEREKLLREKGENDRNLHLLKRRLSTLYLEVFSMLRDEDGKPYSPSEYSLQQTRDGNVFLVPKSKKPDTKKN

[3] = target: T1, Nuclear factor erythroid 2-related factor 2 (Homo sapiens); assay: Activation of Nrf2 in human BEAS2B cells assessed as upregulation of Nrf2 protein expression at 0.31 to 20 uM after 18 hrs by immunoblot analysis; type: cell-based
[4] = target: T1, Nuclear factor erythroid 2-related factor 2 (Homo sapiens); assay: Activation of Nrf2 in human BEAS2B cells assessed as upregulation of gamma-GCS protein expression at 6.25 uM after 8 to 24 hrs by immunoblot analysis; type: cell-based
[5] = target: T1, Nuclear factor erythroid 2-related factor 2 (Homo sapiens); assay: Activation of Nrf2 in human BEAS2B cells assessed as upregulation of Nrf2 protein expression at 6.25 uM after 48 hrs by immunoblot analysis; type: cell-based
[6] = target: T1, Nuclear factor erythroid 2-related factor 2 (Homo sapiens); assay: Activation of Nrf2 in human BEAS2B cells assessed as upregulation of gamma-GCS protein expression at 6.25 uM after 48 hrs by immunoblot analysis; type: cell-based
[7] = system: BEAS-2B; assay: Effect on Keap1 protein levels in human BEAS2B cells at 6.25 uM after 4 to 48 hrs by immunoblot analysis; type: functional, cell-based
[8] = target: T1, Nuclear factor erythroid 2-related factor 2 (Homo sapiens); assay: Activation of Nrf2 in human BEAS2B cells assessed as upregulation of NQO1 protein expression at 3.12 to 25 uM after 12 hrs by immunoblot analysis; type: cell-based
[9] = system: BEAS-2B; assay: Cytotoxicity against human BEAS2B cells assessed as decrease in cell viability up to 25 uM after 48 hrs by MTT assay; type: cell-based
[10] = system: BEAS-2B; assay: Cytoprotective activity in human BEAS2B cells assessed as decrease in 5 to 20 uM As(+3)-induced cell death at 6.25 uM preincubated for 8 hrs followed by As(+3) challenge and measured after 24 hrs by MTT assay; type: functional, cell-based
[11] = system: BEAS-2B; assay: Cytoprotective activity in human BEAS2B cells transfected with Nrf2-SiRNA assessed as decrease in As(+3)-induced cell death at 6.25 uM preincubated for 8 hrs followed by As(+3) challenge and measured after 24 hrs by MTT assay; type: functional, cell-based
[12] = target: T1, Nuclear factor erythroid 2-related factor 2 (Homo sapiens); assay: Inhibition of Nrf2 (unknown origin) ubiquitylation transfected in human BEAS2B cells at 6.25 uM after 6 hrs by immunoblot analysis; type: cell-based
[13] = target: T2, Nuclear factor erythroid 2-related factor 2 (Mus musculus); assay: Activation of Nrf2 in mouse Heap1c1c7 cells assessed as induction of NAD(P)H:quinone reductase activity at 6.25 uM pretreated for 1 hr followed by co-treatment with PKC inhibitor Ro-31-8220 for 24 hrs; type: cell-based
[14] = target: T2, Nuclear factor erythroid 2-related factor 2 (Mus musculus); assay: Activation of Nrf2 in mouse Heap1c1c7 cells assessed as induction of NAD(P)H:quinone reductase activity at 6.25 uM pretreated for 1 hr followed by co-treatment with PERK inhibitor GSK2606414 for 24 hrs; type: cell-based
[15] = target: T1, Nuclear factor erythroid 2-related factor 2 (Homo sapiens); assay: Activation of Nrf2 in human BEAS2B cells assessed as upregulation of Nrf2 protein expression at 6.25 uM pretreated for 1 hr followed by co-treatment with MEK1/2 inhibitor PD98059 for 18 hrs by immunoblot analysis; type: cell-based
[16] = target: T1, Nuclear factor erythroid 2-related factor 2 (Homo sapiens); assay: Activation of Nrf2 in human BEAS2B cells assessed as upregulation of NQO1 protein expression at 6.25 uM pretreated for 1 hr followed by co-treatment with PI3K inhibitor LY294002 for 18 hrs by immunoblot analysis; type: cell-based
[17] = target: T1, Nuclear factor erythroid 2-related factor 2 (Homo sapiens); assay: Activation of Nrf2 in human BEAS2B cells assessed as upregulation of NQO1 protein expression at 6.25 uM pretreated for 1 hr followed by co-treatment with MEK1/2 inhibitor PD98059 for 18 hrs by immunoblot analysis; type: cell-based
[18] = target: T1, Nuclear factor erythroid 2-related factor 2 (Homo sapiens); assay: Activation of Nrf2 in human BEAS2B cells assessed as upregulation of NQO1 protein expression at 6.25 uM pretreated for 1 hr followed by co-treatment with PKC inhibitor Ro-31-8220 for 18 hrs by immunoblot analysis; type: cell-based
[19] = target: T1, Nuclear factor erythroid 2-related factor 2 (Homo sapiens); assay: Activation of Nrf2 in human BEAS2B cells assessed as upregulation of GSH levels at 5 uM measured over 1 to 24 hrs; type: cell-based
[20] = target: T1, Nuclear factor erythroid 2-related factor 2 (Homo sapiens); assay: Activation of Nrf2 in human BEAS2B cells assessed as upregulation of GSH levels after 24 hrs; type: cell-based
[21] = target: T1, Nuclear factor erythroid 2-related factor 2 (Homo sapiens); assay: Activation of Nrf2 in human BEAS2B cells assessed as suppression of As(+3)-induced overproduction of reactive oxygen species at 6.25 uM pretreated for 8 hrs followed by As(+3) challenge and measured after 10 hrs; type: cell-based

- Activity [1]: Active
- fold change (FC) [2]: 2.08
- Activity [3]: Dose-dependent effect
- Activity [4]: Active
- Activity [5]: inactive
- Activity [6]: inactive
- Activity [8]: Active
- inhibition [12]: Active
- Activity [13]: inactive
- Activity [14]: inactive
- Activity [15]: inactive
- Activity [16]: inactive
- Activity [17]: inactive
- Activity [18]: inactive
- Activity [19]: Active
- Activity [20]: Dose-dependent effect
- Activity [21]: Active
Structure (SMILES): COc1ccc(-c2coc3cc(OC)cc(O)c3c2=O)cc1 [4',7-DIMETHOXY-5-HYDROXYGENISTEIN]
- Activity [7]: inactive
- Activity [9]: Non-Toxic
- Activity [10]: Active
- Activity [11]: inactive
